Type in all cases: cell-based
The test system of one assay is CEM-CCRF cells. The experiment in a line: 96 wells transwell migration assay in CEM human lymphoblast cells. From the text:
Thus, to confirm CXCR4 functional activity, we evaluated UCUF-728 in a 96 wells transwell migration assay in CEM human lymphoblast cells. […] (Supplemental Figure S7). From the analog structure–activity relationship studies and characterization studies in the chemotaxis assay, cAMP signaling and CXCR4 binding assay, we identified UCUF-728 as a potent and functionally selective CXCR4 receptor modulator.
CEM-CCRF (ATCC CCL-119) were suspended in RPMI 1640 (Corning; 10-040-CV) at 5.0 × 10^5 cells/mL and allowed to incubate in cell culture incubator at 37 °C with 5% CO2 for one hour. […] Following 1 h cell incubation and compound dispensing, 150 μL of RPMI 1640 supplemented with 2% Fetal Bovine Serum was added to each well of the compound receiver tray, and 50 μL of 5 × 10^5 cells/mL cell suspension in RPMI were added to each well of the top filter plate. Plates were reassembled and placed in a cell culture incubator at 37 °C with 5% CO2 for three hours. After incubation, Multi-Screen plate was disassembled and 100 μL of solution was collected from compound receiver tray and transferred to 96 well luminescent plate and an equal volume of ATPLite 1step luminescence reagent (Perkin Elmer, Waltham, MA, USA) was added to each well. Luminescence was measured using the CLARIOstar Plus (BMG LABTECH Inc., Cary, NC, USA).

The target in assay [1] is T1, CXCR4 receptor (Homo sapiens, UniProt P61073). Description: primary 1536 w β-arrestin recruitment assay (CXCR4-bla U2OS cells, SDF-1α from R&D systems). On the set-up: host or cells: Tango CXCR4-bla U2OS cells. Here is the method:
In our effort to identify CXCR4 activators from the NIH Molecular Library Small Molecule Repository (MLSMR), we developed a primary screening assay to measure β-arrestin recruitment to the activated G-protein coupled receptor (GPCR) by a Florescence Resonance Energy Transfer (FRET) in U2OS cells, overexpressing the CXCR4 receptor engineered with a β-lactamase (bla) reporter system. CXCR4-bla cells plated in 1536 w were stimulated in the presence of 10 µM compound concentration. […] Using this approach, we successfully screened the NIH MLSMR of 370,620 compounds (Figure 1A,B) and identified 303 hits (hit rate = 0.08%). […] These compounds were graded according to activity and structure, resulting in 86 compounds that met the criteria as potential CXCR4 agonists for further characterization (Figure 1B). The workflow for high-throughput screening and this study is illustrated in Figure 1B.
Chemical stability, synthetic tractability, solubility and complete dose response and potency criteria led to the prioritization of the 5-aryl-2-cyclopropyl oxazole scaffold, represented by primary hit Compound 2 (Table 1). The early structure–activity relationship was established around the 5-aryl-2-cyclopropyl oxazole core with commercially available analogs with diverse substituents in the sulfonanilide ring of the scaffold. […] Keeping the 2-OMe substituent constant, we screened a small set of electron withdrawing and electron rich substituents at the 5-position of the anilide ring (entries 16–19). […] The analytical data for UCUF-728 is shown in Supplemental Figures S1–S4.
On the technique in general: Activated receptors often draw arrestin, which recruitment assays turn into a signal.

For assay [2], the target named is T1, CXCR4 receptor. The experiment in a line: cAMP signaling assay, forskolin-induced, PathHunter CHO-K1 CXCR4 cells. To be noted: CHO-K1 CXCR4 overexpressed cells. As to the method: The CXCR4 receptor is a G-protein coupled receptor (GPCR) coupled to the Gi class, whose primary role is inhibition of adenylate cyclase. We tested the ability of UCUF-728 to induce a Gi-mediated cAMP-inhibitory cellular response. […] (Figure 2B).
Forskolin at final concentration of 0.5 mM was added to all wells using the TECAN dispenser. […] of PathHunter CHO-K1 CXCR4 cells (DiscoverX, Fremont, CA, USA) were added to compounds at 3000 cells/well, centrifuged at 1000 rpm for 30 s and incubated for 30 min at room temperature. DMSO (Sigma Aldrich, St. Louis, MO, USA) was normalized to 0.5%. […] of 4X Eu-cAMP tracer working solution were added to all wells, followed by addition of 5 μL of 4X Ulight-anti-cAMP working solution to all wells. Plates were centrifuged at 1000 rpm for 1 min and incubated for 1 h at room temperature, then read using CLARIOstar Plus (BMG LABTECH Inc., Cary, NC, USA) Lance CAMP protocol.

T1 sequence (P61073 whole entry): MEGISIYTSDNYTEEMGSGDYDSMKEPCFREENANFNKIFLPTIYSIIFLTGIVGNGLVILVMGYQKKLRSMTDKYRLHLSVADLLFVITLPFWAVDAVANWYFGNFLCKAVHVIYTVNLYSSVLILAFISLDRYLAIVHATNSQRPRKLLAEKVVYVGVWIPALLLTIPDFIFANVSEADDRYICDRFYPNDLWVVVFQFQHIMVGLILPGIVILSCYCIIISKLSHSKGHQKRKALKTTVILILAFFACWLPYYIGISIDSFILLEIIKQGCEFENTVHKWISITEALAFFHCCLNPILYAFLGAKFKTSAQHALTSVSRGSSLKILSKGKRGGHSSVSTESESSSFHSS

As usually defined, the EC50 is the concentration that produces a half-maximal response. A higher EC50 goes with a need for much substance. The Emax is the greatest response seen or fitted, relative to the assay's reference. On to `COc1ccc(OC)c(NS(=O)(=O)c2ccc(-c3cnc(C4CC4)o3)cc2)c1` [Compound 19], for which the “induction of cell migration” value with CEM-CCRF cells (compound in lower channel, 3 h) was “induced migration with a similar EC50 and Emax as the B-arrestin recruitment activity”. Further, in the assay with CEM-CCRF cells (saturating concentrations of UCUF-728), the “effect on SDF-1α-mediated migration response” value is “potentiated”. On CXCR4 receptor [1], the EC50 amounted to 1100 nM. At CXCR4 receptor [1] (U2OS), this compound had an Emax of 60%. The “inhibition of forskolin-induced adenylate cyclase (cAMP signaling)” value on CXCR4 receptor [2] is “did not inhibit forskolin-induced adenylate cyclase”.

These data come from paper PMC8879702, “Discovery of Small Molecule Activators of Chemokine Receptor CXCR4 That Improve Diabetic Wound Healing” (International Journal of Molecular Sciences, 2022).
